Tests used:
GALAP (Galium) = experiment: Postemergence herbicidal evaluation; assay type: in vivo, Galium aparine; conditions: postemergence
Summary of the method: (§1)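 Compound is applied as a foliar spray to seedlings about two weeks old, formulated in equal parts acetone and water with 0.5% TWEEN 20 and delivered at 40 psi to give about 0.0156–0.500 kg per hectare. Injury is rated visually 0–9 after four to five weeks.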

[1] = tested on: IPOHE (Morningglory, Ivyleaf); experiment: Postemergence herbicidal evaluation; assay type: in vivo, Ipomoea hederacea; conditions: postemergence
Summary of the method: as §1

SETVI (Foxtail, Green) [2] = experiment: Postemergence herbicidal evaluation; assay type: in vivo, Setaria viridis; conditions: postemergence
Summary of the method: as §1

[3] = tested on: TRZAWR (Wheat, Winter, cv Riband); experiment: Postemergence herbicidal evaluation; assay type: in vivo, Triticum aestivum; conditions: postemergence
Summary of the method: as §1

ABUTH (Velvetleaf) = experiment: Preemergence herbicidal evaluation; assay type: in vivo, Abutilon theophrasti; conditions: rated 4-5 weeks after treatment
Summary of the method: (§2)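 In this greenhouse assay, monocot and dicot seeds are planted in soil and treated prior to emergence with an aqueous acetone spray (about 0.0156-0.500 kg/ha). Plants are assessed visually against control on a 0-9 scale after 4-5 weeks.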

[4] = tested on: IPOHE (Morningglory, Ivyleaf); experiment: Preemergence herbicidal evaluation; assay type: in vivo, Ipomoea hederacea; conditions: rated 4-5 weeks after treatment
Summary of the method: as §2

ECHCG (Barnyardgrass) = experiment: Preemergence herbicidal evaluation; assay type: in vivo, Echinochloa crus-galli; conditions: rated 4-5 weeks after treatment
Summary of the method: as §2

SETVI (Foxtail, Green) [5] = experiment: Preemergence herbicidal evaluation; assay type: in vivo, Setaria viridis; conditions: rated 4-5 weeks after treatment
Summary of the method: as §2

ZEAMX (Corn, Field) = experiment: Preemergence herbicidal evaluation; assay type: in vivo, Zea mays; conditions: rated 4-5 weeks after treatment
Summary of the method: as §2

[6] = tested on: ECHORC (Watergrass (Calif.)); experiment: Preemergence weed control under flooded paddy conditions; assay type: in vivo, Echinochloa oryzoides; conditions: rated 3-4 weeks after treatment
Summary of the method: (§3)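 Silt loam, seeds in top 0.5 cm; flood held 1.5-3 cm; test cpd as acetone/water 50/50 into flood water, ~0.0313-0.500 kg/ha a.i.; greenhouse 3-4 wk; visual 0-9 score vs control.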

CYPIR (Rice Flatsedge) = experiment: as above; assay type: in vivo, Cyperus iria; conditions: rated 3-4 weeks after treatment
Summary of the method: as §3

MOOVA (Monochoria) = experiment: as above; assay type: in vivo, Monochoria vaginalis; conditions: rated 3-4 weeks after treatment
Summary of the method: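 Visual injury scored 0-9 against control three to four weeks post-treatment, greenhouse-grown. Application: acetone/water (50/50) solutions dosed directly into flood water (1.5-3 cm over silt loam, planted top 0.5 cm), roughly 0.0313 to 0.500 kg/ha active ingredient.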

C=CCN1C(=O)C(CC(=O)NO)SC1=Nc1cc(-n2c(=O)cc(C(F)(F)F)n(C)c2=O)c(F)cc1Cl (stereo not drawn) [Compound 161, 3-Allyl-2-{{2-chloro-5-[3,6-dihydro-3-methyl-2,6-dioxo-4-(trifluoromethyl)-1(2H)-pyrimidinyl]-4-fluorophenyl}imino}-4-oxo-5-thiazolidineacetohydroxamic acid]
herbicidal rating GALAP (GALAP (Galium); rate 0.0156 kg/ha): 0.0
herbicidal rating GALAP (GALAP (Galium); rate 0.0313 kg/ha): 1.0
herbicidal rating GALAP (GALAP (Galium); rate 0.0625 kg/ha): 2.0
herbicidal rating GALAP (GALAP (Galium); rate 0.1250 kg/ha): 4.0
herbicidal rating IPOHE ([1]; rate 0.0156 kg/ha): 1.0
herbicidal rating IPOHE ([1]; rate 0.0313 kg/ha): 3.0
herbicidal rating IPOHE ([1]; rate 0.0625 kg/ha): 9.0
herbicidal rating IPOHE ([1]; rate 0.1250 kg/ha): 9.0
herbicidal rating SETVI (SETVI (Foxtail, Green) [2]; rate 0.0156 kg/ha): 0.0
herbicidal rating SETVI (SETVI (Foxtail, Green) [2]; rate 0.0313 kg/ha): 1.0
herbicidal rating SETVI (SETVI (Foxtail, Green) [2]; rate 0.0625 kg/ha): 7.0
herbicidal rating SETVI (SETVI (Foxtail, Green) [2]; rate 0.1250 kg/ha): 7.0
herbicidal rating TRZAWR ([3]; rate 0.0156 kg/ha): 2.5
herbicidal rating TRZAWR ([3]; rate 0.0313 kg/ha): 3.5
herbicidal rating TRZAWR ([3]; rate 0.0625 kg/ha): 4.0
herbicidal rating TRZAWR ([3]; rate 0.1250 kg/ha): 4.5
Preemergence herbicidal rating ABUTH (ABUTH (Velvetleaf); 0.0156 kg/ha): 0.0
Preemergence herbicidal rating ABUTH (ABUTH (Velvetleaf); 0.0313 kg/ha): 1.0
Preemergence herbicidal rating ABUTH (ABUTH (Velvetleaf); 0.0625 kg/ha): 2.0
Preemergence herbicidal rating ABUTH (ABUTH (Velvetleaf); 0.1250 kg/ha): 9.0
Preemergence herbicidal rating ABUTH (ABUTH (Velvetleaf); 0.2500 kg/ha): 9.0
Preemergence herbicidal rating ABUTH (ABUTH (Velvetleaf); 0.5000 kg/ha): 9.0
Preemergence herbicidal rating IPOHE ([4]; 0.0313 kg/ha): 2.0
Preemergence herbicidal rating IPOHE ([4]; 0.0625 kg/ha): 7.0
Preemergence herbicidal rating IPOHE ([4]; 0.1250 kg/ha): 9.0
Preemergence herbicidal rating IPOHE ([4]; 0.2500 kg/ha): 9.0
Preemergence herbicidal rating IPOHE ([4]; 0.5000 kg/ha): 9.0
Preemergence herbicidal rating ECHCG (ECHCG (Barnyardgrass); 0.0156 kg/ha): 0.0
Preemergence herbicidal rating ECHCG (ECHCG (Barnyardgrass); 0.0313 kg/ha): 0.0
Preemergence herbicidal rating ECHCG (ECHCG (Barnyardgrass); 0.0625 kg/ha): 0.0
Preemergence herbicidal rating ECHCG (ECHCG (Barnyardgrass); 0.1250 kg/ha): 4.0
Preemergence herbicidal rating ECHCG (ECHCG (Barnyardgrass); 0.2500 kg/ha): 7.0
Preemergence herbicidal rating ECHCG (ECHCG (Barnyardgrass); 0.5000 kg/ha): 9.0
Preemergence herbicidal rating SETVI (SETVI (Foxtail, Green) [5]; 0.0156 kg/ha): 0.0
Preemergence herbicidal rating SETVI (SETVI (Foxtail, Green) [5]; 0.0313 kg/ha): 0.0
Preemergence herbicidal rating SETVI (SETVI (Foxtail, Green) [5]; 0.0625 kg/ha): 7.0
Preemergence herbicidal rating SETVI (SETVI (Foxtail, Green) [5]; 0.1250 kg/ha): 9.0
Preemergence herbicidal rating SETVI (SETVI (Foxtail, Green) [5]; 0.2500 kg/ha): 9.0
Preemergence herbicidal rating SETVI (SETVI (Foxtail, Green) [5]; 0.5000 kg/ha): 9.0
Preemergence herbicidal rating ZEAMX (ZEAMX (Corn, Field); 0.0156 kg/ha): 0.0
Preemergence herbicidal rating ZEAMX (ZEAMX (Corn, Field); 0.0313 kg/ha): 0.0
Preemergence herbicidal rating ZEAMX (ZEAMX (Corn, Field); 0.0625 kg/ha): 1.0
Preemergence herbicidal rating ZEAMX (ZEAMX (Corn, Field); 0.1250 kg/ha): 5.0
Preemergence herbicidal rating ZEAMX (ZEAMX (Corn, Field); 0.2500 kg/ha): 6.0
Preemergence herbicidal rating ZEAMX (ZEAMX (Corn, Field); 0.5000 kg/ha): 9.0
herbicidal effect rating, ECHORC ([6]; 0.0313 kg/ha): 0.0
herbicidal effect rating, ECHORC ([6]; 0.0625 kg/ha): 0.0
herbicidal effect rating, ECHORC ([6]; 0.1250 kg/ha): 2.0
herbicidal effect rating, ECHORC ([6]; 0.2500 kg/ha): 4.0
herbicidal effect rating, CYPIR (CYPIR (Rice Flatsedge); 0.0313 kg/ha): 3.0
herbicidal effect rating, CYPIR (CYPIR (Rice Flatsedge); 0.0625 kg/ha): 4.0
herbicidal effect rating, CYPIR (CYPIR (Rice Flatsedge); 0.1250 kg/ha): 5.0
herbicidal effect rating, CYPIR (CYPIR (Rice Flatsedge); 0.2500 kg/ha): 6.0
herbicidal effect rating, MOOVA (MOOVA (Monochoria); 0.0313 kg/ha): 7.0
herbicidal effect rating, MOOVA (MOOVA (Monochoria); 0.0625 kg/ha): 7.0
herbicidal effect rating, MOOVA (MOOVA (Monochoria); 0.1250 kg/ha): 7.0
herbicidal effect rating, MOOVA (MOOVA (Monochoria); 0.2500 kg/ha): 9.0

— US20020137929A1, “1 - (3-heterocyclylphenyl) isothiourea, -isourea, -guanidine and -amidine herbicidal agents” (Intellectual Property Department, BASF Aktiengesellschaft, priority 1998, published 2002)
